Measurements: patent US7186855B2, “Prodrugs of GABA analogs, compositions and uses thereof” (Xenoport, Inc., priority 2001, dated 2007)

Columns and labels:
mouse = settings: cited from earlier work
[1] = Uptake of gabapentin following intracolonic administration of gabapentin or gabapentin prodrugs in rats; type: in vivo; settings: dose equivalent to 25 mg gabapentin per kg
Protocol: Sustained release oral dosage forms, which release drug slowly over periods of 6–24 hours, generally release a significant proportion of the dose within the colon. […] This experiment was conducted to assess the suitability of gabapentin prodrugs for use in an oral sustained release dosage form.
Rats were obtained commercially and were pre-cannulated in the both the ascending colon and the jugular vein. Animals were conscious at the time of the experiment. All animals were fasted overnight and until 4 hours post-dosing. Gabapentin or gabapentin prodrugs (59), (63), (69), (72), (77), (79), (85), (117) and (126) were administered as a solution (in water or PEG 400) directly into the colon via the cannula at a dose equivalent to 25 mg of gabapentin per kg. Blood samples (0.5 mL) were obtained from the jugular cannula at intervals over 8 hours and were quenched immediately by addition of acetonitrile/methanol to prevent further conversion of the prodrug. Blood samples were analyzed as described below.
• 1. In blank 1.5 mL eppendorf tubes, 300 μL of 50/50 acetonitrile/methanol and 20 μL of p-chlorophenylalanine was added as an internal standard. • 2. […]
An API 2000 LC/MS/MS spectrometer equipped with Shidmadzu 10DVp binary pumps and a CTC HTS-PAL autosampler were used in the analysis. […] The peaks were integrated using Analyst 1.1 quantitation software.

Structure (SMILES) | toxicity (LD50, mouse) (mouse) | gabapentin AUC relative to colonic administration of gabapentin itself [1] | maximum plasma concentration of gabapentin (Cmax) relative to colonic administration of gabapentin itself [1]
NCC1(CC(=O)O)CCCCC1 [gabapentin] | more than 8000 mg/kg |  | 
CC(OC(=O)NCC1(CC(=O)O)CCCCC1)OC(=O)C(C)C (stereo not drawn) [(77), 1-{[(α-Isobutanoyloxyethoxy)carbonyl]aminomethyl}-1-Cyclohexane Acetic Acid] |  | greater than 10 fold | greater than 10 fold
O=C1CC2(CCCCC2)CN1 [lactam (5)] | 300 mg/kg |  | 
